# Experimental data published in PubChem BioAssay AID226 (DTP/NCI, 2004).
# Where “and” joins values, the source holds several entries; their conditions need not be identical. Equal values may be shown once. Inconclusive results and toxic doses are left out.
# System: B6C3F1 mice, intracerebral ependymoblastoma, median survival T/C
# Assay: NCI In Vivo Anticancer Drug Screen. Data for tumor model Ependymoblastoma (intracerebral) in B6C3F1 mice
# Details: endpoint: median survival time, higher = longer survival
# Description: The antitumor activity of compounds was measured in mice bearing transplantable tumors. Survival or tumor size were measured and the results are expressed as the measurement made in the treated group (T) divided by the measurement made in the vehicle treated control group (C). The tumor model used in this assay is Ependymoblastoma (intracerebral) in B6C3F1 mice
# [1] = dose: 8.0 mg/kg/injection, schedule: Q01DX005 (ip), vehicle: saline with Tween-80
# [2] = dose: 16.0 mg/kg/injection, schedule: Q01DX005 (ip), vehicle: saline with Tween-80
smiles,measurement,setting,value
O=c1[nH]c(=O)n([C@H]2CCCO2)cc1F,T/C,[1],98 % of control and 100 % of control
same,T/C,"dose: 8.0 mg/kg/injection, schedule: Q01DX005 (ip), vehicle: saline",92 % of control
same,T/C,[2],93 % of control and 104 % of control
same,T/C,"dose: 16.0 mg/kg/injection, schedule: Q01DX005 (ip), vehicle: saline",91 % of control
same,T/C,"dose: 32.0 mg/kg/injection, schedule: Q01DX005 (ip), vehicle: saline with Tween-80",106 % of control and 109 % of control
same,T/C,"dose: 32.0 mg/kg/injection, schedule: Q01DX005 (ip), vehicle: saline",92 % of control and 96 % of control
same,T/C,"dose: 64.0 mg/kg/injection, schedule: Q01DX005 (ip), vehicle: saline with Tween-80",104 % of control and 105 % of control
same,T/C,"dose: 64.0 mg/kg/injection, schedule: Q01DX005 (ip), vehicle: saline",93 % of control and 103 % of control
same,T/C,"dose: 128.0 mg/kg/injection, schedule: Q01DX005 (ip), vehicle: saline with Tween-80",100 % of control and 119 % of control
same,T/C,"dose: 128.0 mg/kg/injection, schedule: Q01DX005 (ip), vehicle: saline",93 % of control and 110 % of control
same,T/C,"dose: 256.0 mg/kg/injection, schedule: Q01DX005 (ip), vehicle: saline with Tween-80",124 % of control
O=NN(CCCl)C(=O)NCCCl,T/C,"dose: 0.5 mg/kg/injection, schedule: Q01DX009 (ip), vehicle: saline with Tween-80",114 % of control
same,T/C,"dose: 1.0 mg/kg/injection, schedule: Q01DX001 (ip), vehicle: saline",96 % of control and 105 % of control
same,T/C,"dose: 1.0 mg/kg/injection, schedule: Q01DX005 (ip), vehicle: saline + alcohol",100 % of control and 115 % of control
same,T/C,"dose: 1.0 mg/kg/injection, schedule: Q01DX005 (ip), vehicle: saline with Tween-80",99 % of control and 103 % of control
same,T/C,"dose: 1.0 mg/kg/injection, schedule: Q01DX009 (ip), vehicle: saline with Tween-80",118 % of control
same,T/C,"dose: 2.0 mg/kg/injection, schedule: Q01DX001 (ip), vehicle: saline",96 % of control and 105 % of control
same,T/C,"dose: 2.0 mg/kg/injection, schedule: Q01DX005 (ip), vehicle: saline + alcohol",103 % of control and 107 % of control and 119 % of control
same,T/C,"dose: 2.0 mg/kg/injection, schedule: Q01DX005 (ip), vehicle: saline with Tween-80",93 % of control and 116 % of control
same,T/C,"dose: 2.0 mg/kg/injection, schedule: Q01DX009 (ip), vehicle: saline with Tween-80",153 % of control
same,T/C,"dose: 2.5 mg/kg/injection, schedule: Q01DX001 (ip), vehicle: saline with Tween-80",109 % of control
same,T/C,"dose: 4.0 mg/kg/injection, schedule: Q01DX001 (ip), vehicle: saline",106 % of control and 111 % of control
same,T/C,"dose: 4.0 mg/kg/injection, schedule: Q01DX005 (ip), vehicle: saline + alcohol",170 % of control
same,T/C,"dose: 4.0 mg/kg/injection, schedule: Q01DX009 (ip), vehicle: saline with Tween-80",241 % of control
same,T/C,"dose: 5.0 mg/kg/injection, schedule: Q01DX001 (ip), vehicle: alcohol",113 % of control
same,T/C,"dose: 5.0 mg/kg/injection, schedule: Q01DX001 (ip), vehicle: saline with Tween-80",113 % of control
same,T/C,"dose: 7.5 mg/kg/injection, schedule: Q01DX001 (ip), vehicle: saline + alcohol",107 % of control
same,T/C,"dose: 8.0 mg/kg/injection, schedule: Q01DX001 (ip), vehicle: saline",108 % of control and 110 % of control
same,T/C,"dose: 8.0 mg/kg/injection, schedule: Q01DX005 (ip), vehicle: saline + alcohol",204 % of control and 218 % of control
same,T/C,[1],171 % of control and 240 % of control
same,T/C,"dose: 8.0 mg/kg/injection, schedule: Q01DX009 (ip), vehicle: saline with Tween-80",106 % of control
same,T/C,"dose: 10.0 mg/kg/injection, schedule: Q01DX001 (ip), vehicle: saline with Tween-80",99 % of control
same,T/C,"dose: 10.0 mg/kg/injection, schedule: Q01DX005 (ip), vehicle: saline with Tween-80",214 % of control
same,T/C,"dose: 16.0 mg/kg/injection, schedule: Q01DX001 (ip), vehicle: saline",150 % of control and 163 % of control
same,T/C,"dose: 16.0 mg/kg/injection, schedule: Q01DX005 (ip), vehicle: saline + alcohol",376 % of control
same,T/C,[2],105 % of control
same,T/C,"dose: 20.0 mg/kg/injection, schedule: Q01DX001 (ip), vehicle: alcohol",167 % of control
same,T/C,"dose: 20.0 mg/kg/injection, schedule: Q01DX001 (ip), vehicle: saline with Tween-80",117 % of control
same,T/C,"dose: 24.0 mg/kg/injection, schedule: Q01DX001 (ip), vehicle: saline",300 % of control
same,T/C,"dose: 30.0 mg/kg/injection, schedule: Q01DX001 (ip), vehicle: saline + alcohol",177 % of control
same,T/C,"dose: 32.0 mg/kg/injection, schedule: Q01DX001 (ip), vehicle: saline",196 % of control and 226 % of control
same,T/C,"dose: 40.0 mg/kg/injection, schedule: Q01DX001 (ip), vehicle: alcohol",215 % of control
same,T/C,"dose: 40.0 mg/kg/injection, schedule: Q01DX001 (ip), vehicle: saline with Tween-80",112 % of control
same,T/C,"dose: 60.0 mg/kg/injection, schedule: Q01DX001 (ip), vehicle: saline + alcohol",359 % of control
same,T/C,"dose: 64.0 mg/kg/injection, schedule: Q01DX001 (ip), vehicle: saline",95 % of control
